Experimental data taken from patent publication US10227298B2, “Solid forms of a pharmaceutically active compound” (Hoffmann-La Roche Inc., priority 2014, dated 2019).

Experiment: aqueous solubility of the crystalline forms
Type: physicochemical
Conditions: pH 1.5, aqueous buffer, in water at physiological pHs (pH1.5-8.0)

- solubility: < 0.05 µg/mL
SMILES: COc1cc(C(=O)O)ccc1NC(=O)[C@@H]1N[C@@H](CC(C)(C)C)[C@](C#N)(c2ccc(Cl)cc2F)[C@H]1c1cccc(Cl)c1F [Compound A, 4-{[(2R,3S,4R,5S)-4-(4-Chloro-2-fluoro-phenyl)-3-(3-chloro-2-fluoro-phenyl)-4-cyano-5-(2,2-dimethyl-propyl)-pyrrolidine-2-carbonyl]-amino}-3-methoxy-benzoic acid]
